Reference: patent US20070161592A1, “Method of treating fear” (priority 2005, published 2007)

How the values were obtained:
[1] = test system: NR2B siRNA electroporated ACC neurons; experiment: LTP in siRNA electroporated ACC neurons; type: cell-based, mouse
Description: Experiments were performed in a recording chamber on the stage of an Axioskop 2FS microscope with infrared DIC optics for visualizing whole-cell patch clamp recordings. EPSCs were recorded from layer II-III neurons using an Axon 200B amplifier (Axon Instruments, CA) and stimulations were delivered using a bipolar tungsten stimulating electrode placed in layer V of the ACC. In hippocampal slices, EPSCs were evoked by stimulating the Schaffer collateral-commissural pathway. EPSCs were induced by repetitive stimulations at 0.02 Hz and neurons were voltage clamped at −70 mV. The recording pipettes (3-5 MΩ) were filled with solution containing (mM) 145 K-gluconate, 5 NaCl, 1 MgCl2, 0.2 EGTA, 10 HEPES, 2 Mg-ATP, and 0.1 Na3-GTP (adjusted to pH 7.2 with KOH). After obtaining stable EPSCs for 10 min, three kinds of LTP induction paradigms were used within 12 min after establishing the whole-cell configuration to prevent wash out effect on LTP induction (Tsvetkov et al., 2002). The first protocol involved paired presynaptic 80 pulses at 2 Hz with postsynaptic depolarization at +30 mV (referred to as pairing training). The second involved paired 3 presynaptic stimuli that caused 3 EPSPs (10 ms ahead) with 3 postsynaptic APs at 30 Hz, paired 15 times every 5 s (named as EPSPs-APs protocol). The third involved theta-burst stimulation (5 trains of burst with 4 pulses at 100 Hz, at 200 ms interval; repeated 4 times at intervals of 10 s; named as TBS). The NMDAR-mediated component of EPSCs was pharmacologically isolated in Mg^2+-free ACSF containing: CNQX (20 μM), glycine (1 μM) and picrotoxin (100 μM). The patch electrodes contained (in mM) 102 cesium gluconate, 5 TEA-chloride, 3.7 NaCl, 11 BAPTA, 0.2 EGTA, 20 HEPES, 2 MgATP, 0.3 NaGTP, and 5 QX-314 chloride (adjusted to pH 7.2 with CsOH). Neurons were voltage clamped at −60 mV and NMDARs-mediated EPSCs were evoked at 0.05 Hz. Picrotoxin (100 μM) was always present to block GABAA receptor-mediated inhibitory synaptic currents. The access resistance was 15-30 MΩ and was monitored throughout the experiment. […] Results are expressed as means±SEM. […]

NR2B-mediated NMDA EPSCs = NR2B-mediated NMDA EPSCs in neurons from siRNA electroporated ACC slices; type: cell-based, mouse; conditions: Ro25-6981-sensitive component, control slices 12.6±2.6%
Description: Experiments were performed in a recording chamber on the stage of an Axioskop 2FS microscope with infrared DIC optics for visualizing whole-cell patch clamp recordings. EPSCs were recorded from layer II-III neurons using an Axon 200B amplifier (Axon Instruments, CA) and stimulations were delivered using a bipolar tungsten stimulating electrode placed in layer V of the ACC. In hippocampal slices, EPSCs were evoked by stimulating the Schaffer collateral-commissural pathway. EPSCs were induced by repetitive stimulations at 0.02 Hz and neurons were voltage clamped at −70 mV. The recording pipettes (3-5 MΩ) were filled with solution containing (mM) 145 K-gluconate, 5 NaCl, 1 MgCl2, 0.2 EGTA, 10 HEPES, 2 Mg-ATP, and 0.1 Na3-GTP (adjusted to pH 7.2 with KOH). After obtaining stable EPSCs for 10 min, three kinds of LTP induction paradigms were used within 12 min after establishing the whole-cell configuration to prevent wash out effect on LTP induction (Tsvetkov et al., 2002). The first protocol involved paired presynaptic 80 pulses at 2 Hz with postsynaptic depolarization at +30 mV (referred to as pairing training). […] The access resistance was 15-30 MΩ and was monitored throughout the experiment. […] Results are expressed as means±SEM. […]
NMDAR-mediated EPSCs were also recorded in neurons from electroporated ACC slices.

mice = experiment: Locomotor activity in the open field; type: in vivo, mouse; conditions: bilateral ACC microinjection, recorded 15 minutes or one day after injection
Description: NR2B subunit inhibition in adult mice was examined to determine whether this impairs the formation of contextual fear memory. Three days after bilateral siRNA electroporation, mice were trained (or conditioned) and then tested for contextual fear memory by assessing freezing behavior in the same environmental context after 24 hours. There was no difference in baseline freezing or in freezing immediately following the shock/tone pairing between groups; however, there was a significant difference between groups when tested in the contextual environment one day later (n=8 for EGFP only; n=10 for control siRNA; n=8 for shock only; n=11 for NR2B siRNA; one-way ANOVA, p=0.005; FIG. 8C). […] Since the activation of NR2B was suppressed throughout the training and memory test, the roles of NR2B during the acquisition and retrieval of fear memory cannot be distinguished. Recently, electric stimulation of the ACC was reported to induce fear memory one and three days after stimulation (Tang et al., 2005), which implies that the ACC may be involved in the acquisition of fear memory. To directly address this issue, the effect of NR2B blockade using Ro25-6981 was examined. […] In order to rule out any locomotor side-effects, locomotor activity in the open field was tested after bilateral ACC microinjection of Ro25-6981 (n=4) or vehicle (n=4).

## NR2B siRNA: siRNA corresponding to NR2B, sense 5′-GGAUGAGUCCUCCAUGUUCtt-3′, antisense 5′-GAACAUGGAGGACUCAUCCtt-3′, Silencer Pre-designed siRNA ID #61879, Ambion (sense GGAUGAGUCCUCCAUGUUCTT; antisense GAACAUGGAGGACUCAUCCTT; chemistry not given here)
[1]; FIG. 7D
  LTP vs control siRNA electroporated neurons: Smaller LTP
[1]; TBS
  potentiation (LTP) vs control siRNA electroporated neurons: significantly reduced
[1]; pairing training protocol
  potentiation (LTP) vs control siRNA electroporated neurons: significantly reduced
NR2B-mediated NMDA EPSCs
  NR2B-mediated NMDA EPSCs, % of total NMDAR-mediated current: 7.3±0.7%

## C[C@@H](CN1CCC(Cc2ccccc2)CC1)[C@@H](O)c1ccc(O)cc1 [Ro25-6981]
mice
  locomotor activity in the open field: no difference in locomotor activity
